“And” between values parts separate entries of the source, which are not always exact repeats. Equal entries are not always repeated. “Also recorded” adds a separate entry of the source. Where two headings read alike, the source gives them in different places.
Columns and labels:
[1] = Pharmacokinetics of nafamostat in male rats (whole blood, LC/MS/MS); assay type: in vivo
Experimental: Example 1: Pharmacokinetic Studies. The pharmacokinetics of nafamostat were evaluated in male rats following an intravenous dose of 1 mg/kg or an oral dose of 9 mg/kg or 10 mg/kg. Nafamostat whole blood concentrations were determined by LC/MS/MS. Following intravenous dosing, nafamostat appeared in the blood of rats, with average (± SD) maximum whole blood concentrations (189 ± 54 ng/mL) being reached at the first measured time point (0.0830 hours) in all animals. […] The AUC0-t was 81.8 ± 29 ng̬·h/mL. The pharmacokinetic parameters were generated using a standard, non-compartmental model. Note that the half-life reported in this section is the terminal half-life and the alpha phase half-life is much shorter (estimated to be about 3 minutes).
After oral dosing, nafamostat appeared in the blood for the majority of the rats, with the whole blood concentrations being low and transient. The average (± SD) maximum plasma concentrations were 6.40 ± 6.2 ng/mL and 6.09 ± 3.6 ng/mL for the 9 mg/kg and 10 mg/kg doses, respectively, being reached between 0.250 hours and 0.500 hours. Due to the transient whole blood concentration-time profiles, the terminal t½ could not be calculated in the majority of the subjects but is approximated to be about 3 hours. The AUC0-t was 8.80 ng·h/mL (n=1) and 12.6 ± 11 ng·h/mL (n=3) for the two doses, respectively.

hERG K+ channel = hERG K+ channel (Homo sapiens, UniProt Q12809); assay: cell-based
Experimental: Effects of nafamostat in an hERG assay: In an in vitro non-GLP screening study, effects of nafamostat on the hERG K^+ channel currents were evaluated in voltage-clamped human embryonic kidney cells at room temperature. […] A full ICH-Compliant hERG study and in vivo cardiovascular safety pharmacology study is be performed as part of the IND-enabling program.

[2] = tested on: S. typhimurium strains TA98, TA100, TA1535, and TA97a and Escherichia coli strain WP2uvrA76; assay: Bacterial Reverse Mutation (Ames) Screening Assay; assay type: cell-based; details: with or without S9, up to 25 mg/mL
Experimental: Bacterial Reverse Mutation (Ames) Screening Assay: This in vitro non-GLP study evaluated the cytotoxic and mutagenic activity of nafamostat in S. typhimurium strains TA98, TA100, TA1535, and TA97a and in the Escherichia coli (E. coli) strain WP2uvrA76. Two independent assays were conducted using the plate incorporation method with and without S9 metabolic activation. The highest concentration tested was 25 mg/mL. The vehicle control, sterile saline, was tested under the same conditions.

[3] = Pharmacokinetics of oral nafamostat mesylate solution in healthy male and female subjects; assay type: in vivo, human
Experimental: Part 1: Single Ascending Dose Study. Male and female subjects aged 18 - 70 were administered a single dose of 50 mg nafamostat mesylate on day 1, 100 mg nafamostat mesylate on day 3 or 4, and 200 mg nafamostat mesylate on day 5, 6, or 7. Nafamostat mesylate was administered in the form of an oral solution. […]
Part 2: Multiple Ascending Dose Study. Subjects were divided into 2 cohorts. Cohort 1 received an oral solution of 100 mg/mL nafamostat mesylate twice a day for 5 days with pharmacokinetic evaluations on each day. […] Safety evaluations continued for 48 hours after the last dose. After review and evidence of safety, Cohort 2 received an oral solution of 200 mg/mL nafamostat mesylate twice a day for 5 days with pharmacokinetic evaluations on each day. […] Safety evaluations continued for 48 hours after the last dose.
Part 3: Single Fixed Dose Administered Twice Daily for 5 Days. Six subjects, different than the subjects from Parts 1 and 2, received an oral solution of 200 mg/mL nafamostat mesylate twice a day for 5 days. Blood samples were obtained at pre-dose (0 hr.) and at 0.5, 1, 2, 3, 4, 6, and 8 hours after the first dose on Day 1 and again after the first dose on Day 5. […]
Oral solutions received by each subject were prepared by dissolving nafamostat mesylate in about 100 mL of EMETROL®/water and provided at a volume to deliver the indicated dosage. There was no placebo formulation.
Nafamostat pharmacokinetics was evaluated at the 200 mg dose levels.

[4] = tested on: healthy male and female subjects; assay: Safety and tolerability (adverse events) of oral nafamostat mesylate in healthy subjects; assay type: in vivo, human
Experimental: Part 1: Single Ascending Dose Study. Male and female subjects aged 18 - 70 were administered a single dose of 50 mg nafamostat mesylate on day 1, 100 mg nafamostat mesylate on day 3 or 4, and 200 mg nafamostat mesylate on day 5, 6, or 7. Nafamostat mesylate was administered in the form of an oral solution. Blood samples were obtained at pre-dose (0 hr.) and at 0.5, 1, 2, 3, 4, 6, 8, 12, and 24 hours after receiving the nafamostat mesylate oral solution.
Part 2: Multiple Ascending Dose Study. Subjects were divided into 2 cohorts. Cohort 1 received an oral solution of 100 mg/mL nafamostat mesylate twice a day for 5 days with pharmacokinetic evaluations on each day. Blood samples were obtained at pre-dose (0 hr.) and at 0.5, 1, 2, 3, 4, 6, 8, 12, and 24 hours after receiving the nafamostat mesylate oral solution as well as after the first dose on Day 5. Safety evaluations continued for 48 hours after the last dose. After review and evidence of safety, Cohort 2 received an oral solution of 200 mg/mL nafamostat mesylate twice a day for 5 days with pharmacokinetic evaluations on each day. Blood samples were obtained at pre-dose (0 hr.) and at 0.5, 1, 2, 3, 4, 6, 8, 12, and 24 hours after receiving the first dose of nafamostat mesylate oral solution as well as after the first dose on Day 5. Safety evaluations continued for 48 hours after the last dose.
Part 3: Single Fixed Dose Administered Twice Daily for 5 Days. Six subjects, different than the subjects from Parts 1 and 2, received an oral solution of 200 mg/mL nafamostat mesylate twice a day for 5 days. Blood samples were obtained at pre-dose (0 hr.) and at 0.5, 1, 2, 3, 4, 6, and 8 hours after the first dose on Day 1 and again after the first dose on Day 5.
Part 4: Single Ascending Dose Study. Three subjects were administered a single dose of an oral solution of 400 mg/mL nafamostat mesylate. After review and evidence of safety, a second set of three subjects received a single dose of an oral solution of 600 mg/mL nafamostat mesylate. Blood samples were obtained for pharmacokinetic analysis at pre-dose (0 hr.) and at 0.25, 0.5, 0.75, 1, 1.5, 2, 2.5, 3, 4, 6, and 8 hours after receiving the nafamostat mesylate dose.
Evaluations of subjects included incidence and severity of adverse events (AEs), vital signs (pulse rate, blood pressure, respiratory rate), 12-lead electrocardiogram, electrocardiogram telemetry or MCOT cardiac patch, continuous pulse oximetry, clinical laboratory tests (CBC-diff, complete metabolic panel including LFTs, PT, PTT), physical examination.

[5] = human, oral, 200 mg dose levels

hERG K+ channel, sequence (Q12809 whole entry): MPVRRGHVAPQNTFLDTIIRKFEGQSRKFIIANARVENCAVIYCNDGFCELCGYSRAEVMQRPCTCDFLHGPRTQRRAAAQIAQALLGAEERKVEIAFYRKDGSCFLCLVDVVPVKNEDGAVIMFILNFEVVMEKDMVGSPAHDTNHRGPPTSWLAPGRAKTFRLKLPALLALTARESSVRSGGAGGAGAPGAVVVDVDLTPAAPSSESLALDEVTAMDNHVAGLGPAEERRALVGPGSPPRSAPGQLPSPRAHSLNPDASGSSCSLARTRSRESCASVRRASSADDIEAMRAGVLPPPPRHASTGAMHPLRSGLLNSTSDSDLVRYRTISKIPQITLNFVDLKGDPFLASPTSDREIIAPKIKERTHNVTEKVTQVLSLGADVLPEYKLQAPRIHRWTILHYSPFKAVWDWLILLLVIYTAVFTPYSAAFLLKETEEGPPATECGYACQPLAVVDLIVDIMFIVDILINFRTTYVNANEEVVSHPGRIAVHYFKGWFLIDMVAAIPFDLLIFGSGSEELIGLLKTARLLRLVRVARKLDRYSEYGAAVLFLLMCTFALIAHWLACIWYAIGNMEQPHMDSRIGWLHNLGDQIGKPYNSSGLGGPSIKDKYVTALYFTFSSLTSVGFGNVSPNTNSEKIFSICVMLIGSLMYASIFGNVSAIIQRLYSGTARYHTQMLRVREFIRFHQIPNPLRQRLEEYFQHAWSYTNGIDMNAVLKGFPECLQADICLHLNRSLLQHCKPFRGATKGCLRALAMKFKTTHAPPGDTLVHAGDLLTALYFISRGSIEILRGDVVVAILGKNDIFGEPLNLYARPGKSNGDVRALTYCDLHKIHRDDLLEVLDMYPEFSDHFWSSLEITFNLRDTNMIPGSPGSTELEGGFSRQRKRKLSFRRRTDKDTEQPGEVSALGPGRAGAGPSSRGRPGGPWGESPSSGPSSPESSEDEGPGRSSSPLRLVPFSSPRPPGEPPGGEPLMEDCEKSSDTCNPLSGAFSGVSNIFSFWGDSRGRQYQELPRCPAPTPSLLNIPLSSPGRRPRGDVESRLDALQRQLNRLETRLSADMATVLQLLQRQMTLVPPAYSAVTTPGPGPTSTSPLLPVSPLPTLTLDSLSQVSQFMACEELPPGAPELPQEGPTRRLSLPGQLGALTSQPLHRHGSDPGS

In the case of `N=C(N)c1ccc2cc(OC(=O)c3ccc(N=C(N)N)cc3)ccc2c1` [nafamostat], the “average (± SD) maximum whole blood concentration” value ([1]; male rats, intravenous 1 mg/kg) is reported as 189 ± 54 ng/mL, the clearance ([1]; male rats, intravenous 1 mg/kg) is reported as “high and greater than hepatic blood flow in rats” and the “time of maximum whole blood concentration (first measured time point)” value ([1]; male rats, intravenous 1 mg/kg) is reported as 0.0830 h. For the same molecule, the “average (± SD) maximum plasma concentration” value ([1]; male rats, oral 9 mg/kg) was 6.40 ± 6.2 ng/mL, the “average (± SD) maximum plasma concentration” value ([1]; male rats, oral 10 mg/kg) was 6.09 ± 3.6 ng/mL and the half-life ([1]; male, rat, whole blood, iv, 1 mg/kg, male rats, intravenous 1 mg/kg, estimated, read-out: alpha phase half-life) was ~0.05 h. It also gave a half-life ([1]; male, rat, whole blood, iv, 1 mg/kg, male rats, intravenous 1 mg/kg, non-compartmental, read-out: terminal t½ (converted)) of 1.84 ± 1.3 h, a half-life ([1]; male, rat, whole blood, po, male rats, oral dosing, approximated, read-out: terminal t½ (converted)) of ~3 h and a bioavailability ([1]; male, rat, whole blood, rats, oral vs intravenous, read-out: overall absolute oral bioavailability) of 1.16 ± 1.1%. It also gave an AUC(0-t) ([1]; rat, whole blood, male rats, intravenous 1 mg/kg) of 81.8 ± 29 ng·h/mL, an AUC(0-t) ([1]; rat, whole blood, male rats, oral 9 mg/kg (n=1)) of 8.8 ng·h/mL and an AUC(0-t) ([1]; rat, whole blood, male rats, oral 10 mg/kg (n=3)) of 12.6 ± 11 ng·h/mL. The IC50 (hERG K+ channel) was > 50 µM, the “mutagenic activity (mean number of revertants per plate)” value ([2]; any test strain) was “no positive increases in the mean number of revertants” and the cytotoxic activity ([2]; plate incorporation) was “not cytotoxic”. The “PK measurements (nafamostat concentration), all except three samples, below LLQ” value [3, 5] was < 0.1 ng/mL, the “nafamostat found in the two outlier samples taken after at least one daily dose” value [3, 5] was 0.125 ng/mL and 0.101 ng/mL and the “nafamostat detected in blood samples” value ([3]; oral administration) was “No nafamostat was detected in blood samples”. The “therapeutically-relevant blood plasma levels” value ([3]; subjects administered oral nafamostat) was “Therapeutically-relevant blood plasma levels were not observed”, the “adverse events attributable to nafamostat” value ([4]; human subjects, oral solution) was “no adverse events that could be attributed to nafamostat reported” and the adverse events ([4]; oral, up to 600 mg nafamostat mesylate) was “no adverse events are observed”. For the same molecule, the “Drug-Related?” value ([4]; per subject (12-17), adverse event) was “No”, the “Adverse Event” value ([4]; per subject (12-17), oral nafamostat mesylate solution) was “Intermittent headache; also recorded: Thrush; also recorded: Tonsillitis right; also recorded: Right thigh redness, swelling; also recorded: Nausea; also recorded: Orthostatic tachycardia* *; also recorded: Chest pain (mild, intermittent)” and the Severity ([4]; per subject (12-17), severity of adverse event) was “Mild (4×) and Moderate (3×)”.
